Measured values as given in patent US20230141783A1, “DIFFERENT FORMS OF 6-CHLORO-2-ETHYL-N-(4-(4-(4-(TRIFLUOROMETHOXY)PHENYL)PIPERIDINE-1-YL)BENZYL)IMIDAZO[1,2-A]PYRIDINE-3-CARBOXAMIDE” (priority 2019, published 2023).
≈ marks a conversion by molar mass, not a printed value.

Legend:
[1] = pKa analysis (UV-metric titration); assay type: physicochemical; conditions: methanol-water co-solvent, aqueous values by Yasuda-Shedlovsky extrapolation, 25.0-25.1 °C, 0.15 M KCl
Procedure: The sample pKas were determined using the spectrometric (UV-metric) technique. The sample was titrated in a UV-metric triple titration from pH 2.0-12.0 at concentrations of 31 -23 µM, under methanol-water co-solvent conditions (the methanol mixing ratio varied from 63.9 to 46.7% w/w).
It should be noted that an additional potentiometric assay was carried out which confirmed the pKas and that there were no further pKas associated with the sample within the measurable pH range (2.0-12.0).

[2] = Approximate solubility of the free base by gravimetry method; assay type: physicochemical; conditions: organic solvent or mixture, thermodynamic from solid
Procedure: The objective of measuring solubility of free base was to identify potential solvents for salt formation process development. Approximate solubility of the free base was measured by gravimetry method. Excess solids were added to various solvents including some Class III solvents (ICH guideline) at RT and 50° C. Since the solubility in these solvents is generally low, it was decided to mix water with these solvents. The suspensions were slurried for one day; the clear liquors from the top portion of the suspension were used for solubility determination by gravimetry method.

[3] = Solubility estimation by aliquot addition and Clarity temperature cycling; conditions: for solubility: 20 °C, organic solvent or mixture, thermodynamic from solid
cytochrome bc1 = cytochrome bc1 (Mycobacterium tuberculosis, UniProt P9WP37); conditions: Pethe et al., Nature Medicine, 19, 1157-1160 (2013); inhibiting cytochrome bc1 activity; cited from earlier work
cytochrome bc1, sequence (P9WP37 whole entry, looked up): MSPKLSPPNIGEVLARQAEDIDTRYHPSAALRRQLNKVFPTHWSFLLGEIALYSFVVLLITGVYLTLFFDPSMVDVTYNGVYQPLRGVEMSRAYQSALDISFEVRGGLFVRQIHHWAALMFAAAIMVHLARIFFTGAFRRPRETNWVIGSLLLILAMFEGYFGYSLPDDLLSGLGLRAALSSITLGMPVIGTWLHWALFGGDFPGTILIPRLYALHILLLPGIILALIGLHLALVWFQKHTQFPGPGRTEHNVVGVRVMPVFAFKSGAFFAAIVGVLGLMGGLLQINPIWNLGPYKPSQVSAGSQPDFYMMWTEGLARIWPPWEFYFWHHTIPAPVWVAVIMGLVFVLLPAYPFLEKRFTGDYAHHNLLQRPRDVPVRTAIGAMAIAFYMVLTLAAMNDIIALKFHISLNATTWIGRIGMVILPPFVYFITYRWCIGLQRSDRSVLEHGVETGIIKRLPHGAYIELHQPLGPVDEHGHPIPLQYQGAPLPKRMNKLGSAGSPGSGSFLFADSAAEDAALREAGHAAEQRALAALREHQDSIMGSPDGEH

## CCc1nc2ccc(Cl)cn2c1C(=O)NCc1ccc(N2CCC(c3ccc(OC(F)(F)F)cc3)CC2)cc1 [Q203 free base, 6-chloro-2-ethyl-N-(4-(4-(4-(trifluoromethoxy)phenyl)piperidine-1-yl)benzyl)imidazo[1,2-a]pyridine-3-carboxamide]
[1]
  pKa: 3.7 ± 0.06
[2]; Acetone+5%water, 50° C.
  solubility at 1 day: 74 mg/mL (≈ 133 mM)
[2]; Acetone+5%water, RT
  solubility at 1 day: 22 mg/mL (≈ 39.5 mM)
[2]; Acetone+10%water, 50° C.
  solubility at 1 day: 42 mg/mL (≈ 75.4 mM)
[2]; Acetone, 50° C.
  solubility at 1 day: 48 mg/mL (≈ 86.2 mM)
[2]; EA and its mixture with water, 50° C.
  solubility at 1 day: 55 to 98 mg/mL (≈ 98.7 to 176 mM)
[2]; EA+4%water, 50° C.
  solubility at 1 day: 55 mg/mL (≈ 98.7 mM)
[2]; EA+4%water, RT
  solubility at 1 day: 16 mg/mL (≈ 28.7 mM)
[2]; Ethyl Acetate (EA), 50° C.
  solubility at 1 day: 99 mg/mL (≈ 178 mM)
[2]; Ethyl Acetate (EA), RT
  solubility at 1 day: 13 mg/mL (≈ 23.3 mM)
[2]; IPA or its mixture with water, 50° C.
  solubility at 1 day: 11 to 22 mg/mL (≈ 19.7 to 39.5 mM)
[2]; IPA+5%water, 50° C.
  solubility at 1 day: 22 mg/mL (≈ 39.5 mM)
[2]; IPA+15%water, 50° C.
  solubility at 1 day: 11 mg/mL (≈ 19.7 mM)
[2]; IPAC+4%water, 50° C.
  solubility at 1 day: 35 mg/mL (≈ 62.8 mM)
[2]; Isopropyl Acetate (IPAC), 50° C.
  solubility at 1 day: 51 mg/mL (≈ 91.6 mM)
[2]; Isopropyl Acetate (IPAC), RT
  solubility at 1 day: 26 mg/mL (≈ 46.7 mM)
[2]; Isopropyl Alcohol (IPA), 50° C.
  solubility at 1 day: 20 mg/mL (≈ 35.9 mM)
[2]; MA+4%water, 50° C.
  solubility at 1 day: 105 mg/mL (≈ 189 mM)
[2]; MA+4%water, RT
  solubility at 1 day: 18 mg/mL (≈ 32.3 mM)
[2]; Methyl Amine (MA), 50° C.
  solubility at 1 day: 94 mg/mL (≈ 169 mM)
[2]; Methyl Amine (MA), RT
  solubility at 1 day: 38 mg/mL (≈ 68.2 mM)
[2]; Tetrahydrofuran (THF), 50° C.
  solubility at 1 day: 279 mg/mL (≈ 501 mM)
[2]; Tetrahydrofuran (THF), RT
  solubility at 1 day: 133 mg/mL (≈ 239 mM)
[2]; acetone and its mixture with water, 50° C.
  solubility at 1 day: 41 to 74 mg/mL (≈ 73.6 to 133 mM)
[2]; methyl acetate, 50° C.
  solubility at 1 day: 94 to 105 mg/mL (≈ 169 to 189 mM)
[3]; IPA
  Tcryst: 37.0-39.3 °C
  Tdisso: 52.5-55.7 °C
  solubility: < 25.3 mg/mL
[3]; MEK
  Tcryst: not observed
  Tdisso: ambient
  solubility: 50 to 56 mg/mL (≈ 89.8 to 101 mM)
[3]; acetone
  Tcryst: *not observed
  solubility: < 25.4 mg/mL
[3]; acetone, partial solubility when heated, solid remained after two Clarity heat/cool cycles
  Tdisso: *35 °C
[3]; acetonitrile
  Tcryst: 47.4-47.9 °C
  Tdisso: 58.2-58.9 °C
  solubility: < 25 mg/mL
[3]; dichloromethane
  Tcryst: not observed
  Tdisso: ambient
  solubility: 169 to 253 mg/mL (≈ 303 to 454 mM)
[3]; dimethyl sulfoxide
  Tcryst: 32.8-39.3 °C
  Tdisso: 53.6-54.7 °C
  solubility: < 25.5 mg/mL
[3]; ethyl acetate
  Tcryst: not observed
  Tdisso: ambient
  solubility: 34 to 36 mg/mL (≈ 61 to 64.6 mM)
[3]; methanol
  Tcryst: 25.3-26.6 °C
  Tdisso: 45.6-47.1 °C
  solubility: < 25 mg/mL
[3]; methyl tert-butyl ether
  Tcryst: not observed
  Tdisso: not observed
  solubility: < 25.6 mg/mL
[3]; tetrahydrofuran
  Tcryst: not observed
  Tdisso: ambient
  solubility: 128 to 255 mg/mL (≈ 230 to 458 mM)
Cytochrome bc1
  activity against tuberculosis: active against tuberculosis
